# Reference: patent US11384076B2, “Synthesis, pharmacology and use of new and selective FMS-like tyrosine kinase 3 (FLT3) FLT3 inhibitors” (UNIVERSITÄT REGENSBURG, priority 2017, dated 2022)
# How the values were obtained:
# Ba/F3 ITD D835Y mutant = test: FLT3 signaling in Ba/F3 mutants, Western blot; assay type: cell-based, murine; conditions: 5 nM, 2 h
# MV4-11 cells [1] = test: Vitality assay, DAPI staining, flow cytometry; assay type: cell-based, human; conditions: 1, 5, 10, 100 nM, 48 h; especially at 1 nM, 5 nM and 10 nM
# Method: FIG. 14: Results of vitality assay in which MV4-11 cells were exposed to FLT3-inhibitors Marbotinib, Marbotinib Carbamate and ACC220, at different concentrations, and cell viability staining was performed.
# MV4-11 cells were treated with FLT3-inhibitors at different concentrations (1 nM, 5 nM, 10 nM, 100 nM) for 48 h. Viability staining was performed using life cell staining with DAPI. Samples were analysed using flow cytometry via FACS Canto; N=3.
# NB4 cells = test: Cell cycle distribution / subG1 fraction, PI staining, flow cytometry; assay type: cell-based, human; conditions: NB4, 2, 5, 10 nM, 48 h
# Method: (§1) FIG. 5: Diverse human cell lines or cells were treated with different concentrations of Marbotinib (2 nM, 5 nM or 10 nM) or 5 μM STS for 48 h. Cells were harvested and stained with PI; cell cycle distribution were analyzed by flow cytometry. Cell cycle distribution and changes of subG1 fraction are illustrated. A) K562 cell line; B) NB4 cell line; C) PBMCs; n=2
# (§2) After incubation, cells were harvested on ice and fixed in 80% ethanol at −20° C. for at least 1 h. Next, the cells were incubated with RNase for 30 min at room temperature, thereafter stained with propidium iodide (PI), and measured immediately with a flow cytometer. PI intercalates into DNA. In the different phases of the cell cycle, cells incorporate various amounts of PI. This allows the quantification of the cell cycle phases. The subG1 population represents the fraction of apoptotic/necrotic cells, which contains only fragmented DNA (DNA content <2N).
# (§3) Additional experiments were performed to ensure the specificity of Marbotinib. Other human blood cell lines that carry no FLT3-ITD were stimulated with Marbotinib and analyzed. K562 cells derived from a patient with chronic myeloid leukemia. These cells are precursors from erythrocytes and carry a mutation of the tyrosine kinase BCR-ABL. The NB4 cells derived from a patient with acute promyelocytic leukemia and carry a mutation in the PML-RARA fusion protein (Noack, Mahendrarajah et al. 2016). Peripheral blood mononuclear cells (PBMCs) were freshly isolated from whole blood samples and used immediately for experiments. K562, NB4 and PBMCs were stimulated with different concentrations of Marbotinib for 48 h and cell cycle distribution was analyzed by flow cytometry. Marbotinib selectively leads to an increase of subG1 fraction only in FLT3-ITD positive cell lines (FIG. 3 and FIG. 4). Cell lines or cells that carry no FLT3-ITD are not affected by Marbotinib (FIG. 5).
# K562 cells = test: as above; assay type: cell-based, human; conditions: K562, 2, 5, 10 nM, 48 h
# Method: as §1, §2, §3
# PBMCs [2] = test: as above; assay type: cell-based, human; conditions: PBMCs, 2, 5, 10 nM, 48 h
# Method: as §1, §2, §3
# PBMCs [3] = test: AnnexinV FITC/PI apoptosis staining, flow cytometry; assay type: cell-based, human; conditions: PBMCs, 2, 5, 10 nM, 24 h
# Method: (§4) FIG. 6: […] Illustrated are the different populations of living cells, early apoptosis and late apoptosis/necrosis. To elucidate the apoptotic effects the population of cells in early apoptosis and late apoptosis/necrosis is represented in a separate diagram. A) MV4-11 cell line; B) PBMCs; n=1 To analyze apoptosis cells were treated as indicated and harvested on ice. Thereafter cells were stained with Annexin V FITC for 15 min on ice in the dark. After incubation time cells were stained with PI and measured immediately on flow cytometer. An Annexin V FITC and PI single stained sample was used for compensation and an unstained control sample was used to exclude autofluorescence. […] The subG1 fraction is only a hint for apoptosis therefore we stained MV4-11 cells and PBMCs for AnnexinV FITC/PI. This staining allows a differentiation between early apoptosis and late apoptosis. […] Treating FLT3-ITD positive cells with only 5 nM Marbotinib leads to a strong induction of apoptosis without affecting other cells or cell lines tested here.
# MV4-11 cells [4] = test: as above; assay type: cell-based, human; conditions: MV4-11, 2, 5, 10 nM, 24 h
# Method: as §4
# FLT3-ITD in MV4-11 cells = test: Dephosphorylation of FLT3-ITD and downstream targets over time, Western blot; assay type: cell-based, human; conditions: 5 nM; 2 h, 6 h, 16 h, 24 h
# Description: Whole cell lysates were used for SDS-Page and Western blot. The blots show dephosporylation of FLT3-ITD and some of its downstream targets, cell cycle regulators, and DNA damage regulators after treatment with FLT3-inhibitors over time. GAPDH was used as loading control. Control is indicated as CTRL. Marbotinib is indicated as FLT3i3 and Marbotinib-Carbamat is indicated as FLT3i540.
# [5] = test system: FLT3-ITD in MOLM-13 cells; test: FLT3-ITD signaling, Western blot of cell lysates; conditions: MOLM-13, 5 nM
# Ba/F3 ITD N676K mutant = test: FLT3 signaling in Ba/F3 mutants, Western blot; conditions: 5 nM, 2 h
smiles,measurement,setting,value
"CC(C)(C)c1cc(NC(=O)Nc2ccc3oc(C(=O)c4cc5cc(O)ccc5[nH]4)cc3c2)no1 [Marbotinib, 1-(5-(tert-butyl)isoxazol-3-yl)-3-(2-(5-hydroxy-1H-indole-2-carbonyl)benzofuran-5-yl)urea]",signal of p-FLT3 and p-STAT5,Ba/F3 ITD D835Y mutant,strong reduction
same,"cell viability, efficacy compared with AC220",MV4-11 cells [1],more effective than compound AC220
same,cell cycle distribution / subG1 fraction,NB4 cells,not affected
same,cell cycle distribution / subG1 fraction,K562 cells,not affected
same,cell cycle distribution / subG1 fraction,PBMCs [2],not affected
same,apoptosis (AnnexinV FITC/PI),PBMCs [3],no changes in basal apoptosis
same,apoptosis (AnnexinV FITC/PI),MV4-11 cells [4],clear induction of apoptosis
same,block of FLT3-ITD and its associated signaling cascades,FLT3-ITD in MV4-11 cells,effectively block
same,p-STAT5,[5],clear reduction
same,p-FLT3-ITD,[5]; 1 h,clearly reduces
same,signal of p-FLT3,Ba/F3 ITD N676K mutant,strong reduction
same,signal of p-STAT5,Ba/F3 ITD N676K mutant,strong reduction
